From ChEMBL document CHEMBL1121723 (J Med Chem, 1981) come the findings set out here.

For orientation: IC50 means the concentration needed to halve the response being measured. A higher IC50 goes with lower potency. Broadly, the inhibition is how much of the control response was suppressed. The low end stands for little suppression, the high end for strong suppression.

The first test concerns the target Thromboxane-A synthase (Oryctolagus cuniculus). The test can be described thus: Inhibitory activity against rabbit thromboxane synthetase.
Conditions: not given
`CC(C)(CC/C=C/C=C/C(=O)O)n1ccnc1`: it took 450 nM to reach half-maximal inhibition (IC50). That is a sub-micromolar value.

`CC(C)(CCCC#CCn1ccnc1)C(=O)O`: it took 9 nM to reach half-maximal inhibition (IC50). This IC50 lies about 50-fold lower than the previous one.

`NC(CCCCCCn1ccnc1)C(=O)O` (stereo not given) came in with an IC50 above 1000 nM.

With `O=C(O)C(O)CCCCCCn1ccnc1` (stereo not given), the IC50 is 140 nM.

In turn, `O=C(O)CCCCCCc1c[nH]cn1` registered an IC50 of 20000 nM.

With `O=C(O)C(CO)CCCCCCn1ccnc1` (stereo not given), the IC50 was 250 nM.

In turn, `O=C(O)c1ccc(CCCn2ccnc2)cc1` displayed an IC50 of 5 nM.

`O=C(O)/C=C/c1ccc(OCCn2ccnc2)cc1` gave an IC50 of 250 nM. This IC50 lies about 50-fold higher than the previous one.

The molecule `CC(=O)CCCCCCCn1ccnc1` returned an IC50 above 1000 nM.

With `CC(Oc1ccc(Cn2ccnc2)cc1)C(=O)O` (stereo not given), inhibition was half-maximal at 38 nM (IC50).

The molecule `O=C(O)COc1ccccc1Cn1ccnc1` had an IC50 of 210 nM.

Regarding `O=C(O)/C=C/c1cccc(Cn2ccnc2)c1`, inhibition was half-maximal at 32 nM (IC50).

Molecule `O=C(O)CCCc1ccc(Cn2ccnc2)cc1` gave an IC50 of 1200 nM.

For `c1cn(CCCCCCCn2ccnc2)cn1`, half-maximal inhibition (IC50) required 2000 nM.

Take `CC(C)(Oc1ccc(Cn2ccnc2)cc1)C(=O)O`: the IC50 came to 25 nM.

The molecule `C[S+]([O-])CCCCCCCCn1ccnc1` (stereo not given) registered an IC50 of 3300 nM.

Turning to `Cc1nccn1CCCCCCC(=O)O`, the IC50 was above 1000 nM.

With `O=C(O)COc1ccc(Cn2ccnc2)cc1`, the midpoint of inhibition, the IC50, lay at 40 nM.

As for `O=C(CCCCCCCn1ccnc1)c1ccccc1`, the midpoint of inhibition, the IC50, lay at 134 nM.

Molecule `O=C(O)CCCc1ccc(-n2ccnc2)cc1` yielded an IC50 of 120 nM. The IC50 values of the last two molecules are within 1.5-fold of each other.

For `O=C(O)Cc1ccc(CCn2ccnc2)cc1`, inhibition was half-maximal at 1500 nM (IC50). Compared with the last molecule, the IC50 is about 12-fold higher.

Regarding `O=C(O)c1ccc(/C=C/Cn2ccnc2)cc1`, the IC50 is 44 nM.

Molecule `O=C(O)C(CCCCCCn1ccnc1)C(=O)O` gave an IC50 of 550 nM.

As for `O=C(O)CCCCCCc1ncc[nH]1`, 20000 nM corresponded to half-maximal inhibition (IC50). Compared with the last molecule, the IC50 is about 36-fold higher.

For the next test, the system named is Thromboxane-A synthase (Oryctolagus cuniculus). In words: Compound was tested for its inhibitory activity against Thromboxane synthetase. Particulars: concentration not given here.
With `CSCCCCCCCCn1ccnc1`, the inhibition was 11.4%.

As for `SCCCCCCCCn1ccnc1`, the inhibition stood at 17.5%.

`N#CCCCCCCCn1ccnc1`: the inhibition turned out to be 0%.

For the molecule `O=S(=O)(O)CCCCCCn1ccnc1`, the inhibition came to 8.8%.

For the next test the test system is unchanged. The test can be described thus: Compound was tested for its inhibitory activity against Thromboxane synthetase at 25 nM.
Conditions: not given
As for `c1cn(CCCCCCCn2ccnc2)cn1`, the inhibition came out at 13.4%.

`C[S+]([O-])CCCCCCCCn1ccnc1` (stereo not given) registered an inhibition of 9%.
